Among the data in patent US20240368096A1 (Enanta Pharmaceuticals, Inc., priority 2022, published 2024) are EC50 values, retold here.

Molecules are shown by their SMILES.

The subject of the test is HBV. In words: HBV infection in HepG2-NTCP cells (HBeAg AlphaLISA in supernatants). In kind it is cell-based. The conditions noted are these: Hepatitis B virus, 192 h; HBV infection of HepG2-NTCP cells; HBeAg in supernatants at day 8 post infection; read-out: Cellular EC50. A digest of the protocol: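 HepG2-NTCP A3 cells were pre-incubated 2 h with 3-fold serially diluted compounds, then infected with HBV at 2000 GE/cell with 4% PEG (0.5% DMSO final). After washing on day 1, cells stayed in 2.5% DMSO medium; supernatant HBeAg measured by AlphaLISA on day 8, EC50 versus DMSO controls.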
On the technique in general: Alpha assays give light when donor and acceptor beads are brought close together.
For the molecule `CN1[C@H](C2CCCCC2)CN(c2ccc(OC(F)(F)F)cc2)c2cc(Cl)c(-c3ccc(F)c(C(=O)O)c3)cc2S1(=O)=O` [Example 292], the EC50 (as a rule, the concentration that produces a half-maximal response) was less than 100 nM.

Consider `CC(C)C[C@@H]1CN(c2ccccc2)c2cc(Cl)c(-c3cc(C(=O)O)cc(C(F)(F)F)c3)cc2S(=O)(=O)N1C` [Example 164], for which the EC50 is 100 to 1000 nM.

Take `CN1[C@H](C2CCCCC2)CN(c2cc(F)c(F)c(F)c2)c2cc(Cl)c(-c3ccc(F)c(C(=O)O)c3)cc2S1(=O)=O` [Example 298]: the concentration for a half-maximal effect (EC50) is 100 to 1000 nM.

In the case of `CC(C)C[C@@H]1CN(c2ccccc2)c2cc(OC3COC3)c(-c3ccc(F)c(C(=O)O)c3)cc2S(=O)(=O)N1C` [Example 443], the half-maximal effective concentration (EC50) lay within 100 to 1000 nM.

In the case of `CC(C)C[C@@H]1CN(c2ccccc2)c2cc(-c3cccc(F)c3)c(-c3ccc(F)c(C(=O)O)c3)cc2S(=O)(=O)N1C` [Example 575], the EC50 is less than 100 nM.

Consider `CC(=O)NS(=O)(=O)c1cccc(-c2cc3c(cc2Cl)N(c2ccccc2)C[C@@H](C2CCC2)N(C)S3(=O)=O)c1` [Example 228], for which the EC50 was in the range of 100 to 1000 nM.

With `CN1[C@H](CN2CCCC2)CN(c2ccccc2)c2cc(Cl)c(-c3ccc(F)c(C(=O)O)c3)cc2S1(=O)=O` [Example 110], the EC50 was greater than 1000 nM.

With `CC(C)C[C@@H]1CN(c2ccccc2)c2cc(Cl)c(-c3ccc(O)c(C(=O)O)c3)cc2S(=O)(=O)N1C` [Example 160, (R)-5-(7-chloro-3-isobutyl-2-methyl-1,1-dioxido-5-phenyl-2,3,4,5-tetrahydrobenzo[f][1,2,5]thiadiazepin-8-yl)-2-hydroxybenzoic acid], the EC50 is less than 100 nM.

For `CN1[C@H](C2CCCCC2)CN(c2ccccc2)c2cc(Cl)c(-c3cnc(O)c(C(=O)O)c3)cc2S1(=O)=O` [Example 193], the half-maximal effective concentration (EC50) is 100 to 1000 nM.

`CN1[C@H](CC2CCCCC2)CN(c2ccccc2)c2cc(Cl)c(-c3ccc(F)c(C(=O)O)c3)cc2S1(=O)=O` [Example 52]: the concentration giving a half-maximal response (EC50) lay in the range of 100 to 1000 nM.

On to `CCCC[C@@H]1CN(c2ccccc2)c2cc(-n3nnnc3C)c(-c3ccc(F)c(C(=O)O)c3)cc2S(=O)(=O)N1C` [Example 525], for which the concentration for a half-maximal effect (EC50) was greater than 1000 nM.

In the case of `CN1[C@H](C2CCCCC2)CN(c2ccccc2)c2cc(OC3CCCCC3)c(-c3ccc(F)c(C(=O)O)c3)cc2S1(=O)=O` [Example 374], the EC50 was less than 100 nM.

With `CC(C)CC1CN(c2ccccc2)c2cc(C#N)c(-c3cccc(C(=O)O)c3)cc2S(=O)(=O)N1C` (centres unmarked) [Example 14], the concentration giving a half-maximal response (EC50) was 100 to 1000 nM.

In the case of `CN1[C@H](C2CCCCC2)CN(c2ccccc2)c2cc(OCc3nccs3)c(-c3ccc(F)c(C(=O)O)c3)cc2S1(=O)=O` [Example 340], the concentration giving a half-maximal response (EC50) was less than 100 nM.

For the molecule `O=C(O)c1cccc(-c2cc3c(cc2Cl)N(c2ccccc2)CC2CC4(CC4)CN2S3(=O)=O)c1` (centres unmarked) [Example 57], the concentration for a half-maximal effect (EC50) was 100 to 1000 nM.

As for `CN1[C@H](C2CCCCC2)CN(c2ccccc2)c2cc(Cl)c(-c3cncc(C(=O)O)c3)cc2S1(=O)=O` [Example 136, (R)-5-(7-chloro-3-cyclohexyl-2-methyl-1,1-dioxido-5-phenyl-2,3,4,5-tetrahydrobenzo[f][1,2,5]thiadiazepin-8-yl)nicotinic acid], the EC50 was greater than 1000 nM.

For the molecule `CCCC[C@@H]1CN(c2ccccc2)c2cc(N3CCCC3)c(-c3cc(C(=O)O)n(C)n3)cc2S(=O)(=O)N1C` [Example 521], the EC50 was in the range of 100 to 1000 nM.

For `CN1[C@H](C2CCCCC2)CN(c2ccccc2)c2cc(OCCCCO)c(-c3ccc(F)c(C(=O)O)c3)cc2S1(=O)=O` [Example 365], the concentration for a half-maximal effect (EC50) was less than 100 nM.

As for `CN1[C@H](CN2CCCC2=O)CN(c2ccccc2)c2cc(Cl)c(-c3ccc(F)c(C(=O)O)c3)cc2S1(=O)=O` [Example 115], the 50% effective concentration (EC50) is greater than 1000 nM.

Turning to `CCCCCOC(=O)Nc1cc(-c2cc3c(cc2Cl)N(c2ccccc2)C[C@@H](C2CCCCC2)N(C)S3(=O)=O)sc1C(=O)O` [Example 247], the concentration for a half-maximal effect (EC50) is less than 100 nM.

In the case of `CCOc1ccc(-c2cc3c(cc2Cl)N(c2ccccc2)C[C@@H](C2CCCCC2)N(C)S3(=O)=O)cc1C(=O)O` [Example 155, (R)-5-(7-chloro-3-cyclohexyl-2-methyl-1,1-dioxido-5-phenyl-2,3,4,5-tetrahydrobenzo[f][1,2,5]thiadiazepin-8-yl)-2-ethoxybenzoic acid], the 50% effective concentration (EC50) lay in the range of 100 to 1000 nM.

Turning to `Cc1c(F)cccc1Oc1cc2c(cc1-c1ccc(F)c(C(=O)O)c1)S(=O)(=O)N(C)[C@H](C1CCCCC1)CN2c1ccccc1` [Example 410], the EC50 was less than 100 nM.

As for `CN1[C@H](C2CCCCC2)CN(c2ccccc2)c2cc(N3CC4(CCCC4)C3)c(-c3ccc(F)c(C(=O)O)c3)cc2S1(=O)=O` [Example 533], the 50% effective concentration (EC50) was in the range of 100 to 1000 nM.

As to `CN1[C@H](C2CCCCC2)CN(c2ccccc2)c2cc(Cl)c(-c3ccc(NC(=O)Nc4ccccc4)c(C(=O)O)c3)cc2S1(=O)=O` [Example 237, (R)-5-(7-chloro-3-cyclohexyl-2-methyl-1,1-dioxido-5-phenyl-2,3,4,5-tetrahydrobenzo[f][1,2,5]thiadiazepin-8-yl)-2-(3-phenylureido)benzoic acid], the EC50 is less than 100 nM.

Turning to `CN1[C@H](C2CCCCC2)CN(c2ccccc2)c2cc(OCc3ccccc3C#N)c(-c3cc(F)c(C(=O)O)s3)cc2S1(=O)=O` [Example 510], the half-maximal effective concentration (EC50) was less than 100 nM.

Regarding `Cc1c(C(=O)O)cccc1-c1cc2c(cc1Cl)N(c1ccccc1)C[C@@H](C1CCCCC1)N(C)S2(=O)=O` [Example 144, (R)-3-(7-chloro-3-cyclohexyl-2-methyl-1,1-dioxido-5-phenyl-2,3,4,5-tetrahydrobenzo[f][1,2,5]thiadiazepin-8-yl)-2-methylbenzoic acid], the EC50 is greater than 1000 nM.

Regarding `CN1[C@H](C2CCCCC2)CN(c2ccccc2)c2cc(OCC34CC(C#N)(CO3)C4)c(-c3cc(F)c(C(=O)O)s3)cc2S1(=O)=O` [Example 504], the concentration giving a half-maximal response (EC50) is less than 100 nM.

For `CCCCC[C@H](C)Oc1cc2c(cc1-c1ccc(F)c(C(=O)O)c1)S(=O)(=O)N(C)[C@H](C1CCCCC1)CN2c1ccccc1` [Example 356], the EC50 is less than 100 nM.

Turning to `CN1[C@H](C2CCCCC2)CN(c2ccccc2)c2cc(Cl)c(-c3cccc(C(=O)C(=O)O)c3)cc2S1(=O)=O` [Example 207], the concentration giving a half-maximal response (EC50) is less than 100 nM.

For the molecule `CN1[C@H](C2CCCCC2)CN(c2ccccc2)c2cc(Cl)c(-c3ccc([N+](=O)[O-])c(C(=O)O)c3)cc2S1(=O)=O` [Example 189, (R)-5-(7-chloro-3-cyclohexyl-2-methyl-1,1-dioxido-5-phenyl-2,3,4,5-tetrahydrobenzo[f][1,2,5]thiadiazepin-8-yl)-2-nitrobenzoic acid], the EC50 was less than 100 nM.

For the molecule `C=CC[C@H]1CN(c2ccccc2)c2cc(Cl)c(-c3cccc(C(=O)O)c3)cc2S(=O)(=O)N1C` [Example 40], the concentration for a half-maximal effect (EC50) is greater than 1000 nM.

Consider `CN1[C@H](C2CCCCC2)CN(c2ccccc2)c2cc(Oc3ccccc3F)c(-c3ccc(Cl)c(C(=O)O)c3)cc2S1(=O)=O` [Example 401, (R)-2-chloro-5-(3-cyclohexyl-7-(2-fluorophenoxy)-2-methyl-1,1-dioxido-5-phenyl-2,3,4,5-tetrahydrobenzo[f][1,2,5]thiadiazepin-8-yl)benzoic acid], for which the half-maximal effective concentration (EC50) was less than 100 nM.

Take `COC(C)(C)C#Cc1cc2c(cc1-c1ccc(F)c(C(=O)O)c1)S(=O)(=O)N(C)[C@H](C1CCCCC1)CN2c1ccccc1` [Example 604]: the EC50 was less than 100 nM.

For the molecule `Cc1cc(N2C[C@@H](C3CCCCC3)N(C)S(=O)(=O)c3cc(-c4ccc(F)c(C(=O)O)c4)c(Cl)cc32)ccn1` [Example 285], the EC50 was greater than 1000 nM.

For the molecule `Cc1ccc(Oc2cc3c(cc2-c2ccc(F)c(C(=O)O)c2)S(=O)(=O)N(C)[C@H](C2CCCCC2)CN3c2ccccc2)cc1F` [Example 411], the 50% effective concentration (EC50) was less than 100 nM.

As for `CN1[C@H](C2CCCCC2)CN(c2ccccc2)c2cc(N3CCN(S(C)(=O)=O)CC3)c(-c3ccc(F)c(C(=O)O)c3)cc2S1(=O)=O` [Example 536], the concentration giving a half-maximal response (EC50) lay in the range of 100 to 1000 nM.

As for `COCCOc1cccc(N2C[C@@H](C3CCCCC3)N(C)S(=O)(=O)c3cc(-c4ccc(F)c(C(=O)O)c4)c(Cl)cc32)c1` [Example 312], the EC50 was less than 100 nM.

Take `CCCC[C@@H]1CN(c2ccccc2)c2cc(-n3cnc4ccccc43)c(-c3ccc(F)c(C(=O)O)c3)cc2S(=O)(=O)N1C` [Example 527]: the half-maximal effective concentration (EC50) is 100 to 1000 nM.

On to `CC(C)C[C@@H]1CN(c2ccccc2)c2cc(-c3ccc(F)cc3)c(-c3ccc(F)c(C(=O)O)c3)cc2S(=O)(=O)N1C` [Example 573, (R)-2-fluoro-5-(7-(4-fluorophenyl)-3-isobutyl-2-methyl-1,1-dioxido-5-phenyl-2,3,4,5-tetrahydrobenzo[f][1,2,5]thiadiazepin-8-yl)benzoic acid], for which the concentration for a half-maximal effect (EC50) was less than 100 nM.

For `CN1[C@H](C2CCC2)CN(c2ccccc2)c2cc(Cl)c(-c3ccc(OC(F)(F)F)c(C(=O)O)c3)cc2S1(=O)=O` [Example 177], the half-maximal effective concentration (EC50) is less than 100 nM.

With `CCC[C@@H]1CN(c2ccccc2)c2cc(Cl)c(-c3ccc(Cl)c(C(=O)O)c3)cc2S(=O)(=O)N1C` [Example 48], the EC50 is less than 100 nM.

Take `CN1[C@H](c2ccccc2)CN(c2ccccc2)c2cc(Cl)c(-c3ccc(F)c(C(=O)O)c3)cc2S1(=O)=O` [Example 54]: the concentration giving a half-maximal response (EC50) was 100 to 1000 nM.

On to `CC(C)C[C@@H]1CN(c2ccccc2)c2cc(OCC34CCCN3CCC4)c(-c3ccc(F)c(C(=O)O)c3)cc2S(=O)(=O)N1C` [Example 450], for which the 50% effective concentration (EC50) was greater than 1000 nM.

Regarding `CN1[C@H](C2CCCCC2)CN(c2ccccc2)c2cc(OCc3cscn3)c(-c3ccc(F)c(C(=O)O)c3)cc2S1(=O)=O` [Example 341], the EC50 was less than 100 nM.

`CN1[C@H](C2CCCCC2)CN(c2ccccc2)c2cc(Cl)c(-c3cc(C(=O)O)c4ccccc4c3)cc2S1(=O)=O` [Example 196]: the EC50 lay in the range of 100 to 1000 nM.

For `CN1[C@H](C2CCCCC2)CN(c2ccccc2)c2cc(Cl)c(-c3cc(F)c(N)c(C(=O)O)c3)cc2S1(=O)=O` [Example 190], the concentration for a half-maximal effect (EC50) is 100 to 1000 nM.

For the molecule `CN1[C@H](C2CCC2)CN(c2ccccc2)c2cc(Cl)c(-c3ccc(O)c(C(=O)O)c3)cc2S1(=O)=O` [Example 159], the half-maximal effective concentration (EC50) lay within 100 to 1000 nM.
